Source: patent US7659273B2, “Composition for accelerating bone fracture healing” (Mitsubishi Tanabe Pharma Corporation, priority 2001, dated 2010)

Tests used:
[1] = system: backbone, femur and cortical bone of mouse; conditions: daily subcutaneous injection; cited from earlier work
[2] = system: cultured rabbit costicartilage cells; assay: Calcification of chondrocyte (Experimental Example 5); type: cell-based; conditions: 10^−4 M; 4 week cultivation; silver nitrate and Alizarin Red staining; FIG. 1
Source text: Costicartilages were isolated from NZ line rabbit (Kitayama Labes., Co Ltd.; male; 4-week-old) and soaked into Hank's balanced salt solution (calcium- and magnesium-free; LifeTech Co., Ltd.; hereinafter, referred to as “HBSS”). One costicartilage and one costa were excised together, the adipose tissue and the muscle tissue were removed and then, the proliferating chondrocyte layer of costicartilage was excised. The collected proliferating chondrocyte layer was cut into sections with a surgical knife (FEATHER Safety Razor Co., Ltd.) and the all proliferating chondrocyte layer sections from 4 rabbits were combined in a centrifuge tube. To the centrifuge tube was added 40 ml of HBSS (pH 7.2) supplied with 0.1% tetrasodium ethylenediamine tetraacetate to obtain suspension of the proliferating chondrocyte layer sections, which was shaken at 37° C. for 20 minutes and centrifuged (1500 rpm, 10 minutes). The supernatant was aspirated off, and 40 ml of HBSS (pH 7.2) supplied with 0.2% trypsin was added to the tube to suspend the precipitates and shaken at 37° C. for 1 hour. The tube was centrifuged (1500 rpm, 10 minutes), and the supernatant was aspirated off. […] The precipitates were suspended in the same medium to give an about 5 ml suspension, and the cell number was counted. […]

[3] = system: rabbit costicartilage cells; assay: Cartilage matrix (proteoglycan) production, Alcian blue staining (Experimental Examples 3 and 4); type: cell-based; conditions: summary of Tables 10 and 11
Source text: Costicartilages were isolated from NZ line rabbit (Kitayama Labes., Co Ltd.; male; 4-week-old) and soaked into Hank's balanced salt solution (calcium- and magnesium-free; LifeTech Co., Ltd.; hereinafter, referred to as “HBSS”). One costicartilage and one costa were excised together, the adipose tissue and the muscle tissue were removed and then, the proliferating chondrocyte layer of costicartilage was excised. The collected proliferating chondrocyte layer was cut into sections with a surgical knife (FEATHER Safety Razor Co., Ltd.) and the all proliferating chondrocyte layer sections from 4 rabbits were combined in a centrifuge tube. To the centrifuge tube was added 40 ml of HBSS (pH 7.2) supplied with 0.1% tetrasodium ethylenediamine tetraacetate to obtain suspension of the proliferating chondrocyte layer sections, which was shaken at 37° C. for 20 minutes and centrifuged (1500 rpm, 10 minutes). The supernatant was aspirated off, and 40 ml of HBSS (pH 7.2) supplied with 0.2% trypsin was added to the tube to suspend the precipitates and shaken at 37° C. for 1 hour. The tube was centrifuged (1500 rpm, 10 minutes), and the supernatant was aspirated off. The precipitates were washed twice with HBSS, suspended in 100 ml of HBSS supplied with 0.1% collagenase (Wako Pure Chemical Industries, Ltd., 034-10533) and shaken at 37° C. for 3 hours. The content of the tube was passed through the Cell Strainer (pore size 40 μm) and the filtrate was divided into four centrifuge tubes. To each of all four tubes was added 40 ml of medium (α-MEM, LifeTech Co., Ltd.), and the tubes were centrifuged (1500 rpm, 10 minutes). The supernatant was aspirated off, and the resultant precipitates were collected in one tube with Pipetman. After addition of 40 ml of the same medium, the tube was re-centrifuged (1500 rpm, 10 minutes). Washing procedure comprising addition of medium followed by centrifugation was repeated additional three times. The precipitates were suspended in the same medium to give an about 5 ml suspension, and the cell number was counted.
The suspension of costicartilage cell described above was added to 24-well plate at 50,000 cells per well (day 1). […]
After removing the medium, cells in each well were fixed by addition of 1 ml of neutral buffer containing 4% paraformaldehyde and incubation for 30 minutes at room temperature. […] Absorbance at 620 nm was measured, and cartilage matrix amount (proteoglycan production amount) in each well was estimated, and proteoglycan production rate (%) of each test compound for vehicle (100%) was calculated.
The cartilage matrix (proteoglycan) production was determined using other compounds (compounds (52)-(55) and Compound (2) for comparison) in exactly the same manner as Experimental Example 3 above.

fibula fracture region = assay: Acceleration of fracture healing in normal rat, Compound (1) microspheres (Experimental Example 1); type: in vivo; conditions: normal rats, Example 2-(1) microspheres, 6 weeks after suturing; for Fibula Bone Mineral Density: at cutting site; for Fibula Bone Mineral Density / Fibula Bone Mineral Content: DXA at fracture region; for Breaking Energy / Breaking force: three-point bending test
Protocol: CD (SD) IGS rats (Charles River Japan, Inc.; male; 7-week-old) were housed for seven days at room temperature (23±2° C.) and 40-70% humidity. During the housing period, the rats were free to access commercially available food (from Oriental Bio; CE-2).
Under ether anesthesia, the left-lower legs of rats were shaved and sterilized with 70% aqueous ethanol, fibulas were exposed with scissors and cut with nail scissors (Natsume Seisakusyo; B17). The cut sections of the fibula were re-matched with tweezers. For the test groups (20 rats/group), the drug-containing microspheres prepared in Example 2-(1), which contains 0.1 or 0.5 mg of Compound (1), were placed around the cutting site of each rat using spatula followed by suturing with silk thread. For the control group (20 rats/group), the same amount of drug-free microspheres prepared in Control Example 1-(1) were placed around the cutting site using spatula followed by suturing with silk thread. Following the suturing, animals of every group were sterilized with 70% aqueous ethanol. At six weeks after the suturing, under ether anesthesia, 10 rats from each group were sacrificed by laparotomy with bleeding and the fibulas were excised.
The fibula excised at 6 weeks after suturing was subjected to DXA bone densitometer (Aloka; DCS-600) to determine bone mineral density and bone mineral content at fracture region (scanning width: 1 mm).
The volume of fibula excised 6 weeks after suturing was determined using Plethysmometer (Muromachi Kikai Co., Ltd.; TK-101).
The fibula excised at 6 weeks after suturing was subjected to a three-point bending test with bone strength tester (from Muromachi Kikai Co., Ltd.; TK-252C) to determine bone strength. Briefly, the fibula was supported by two supports apart from each other by 8 mm and the cut section was positioned at the middle of these supports, i.e., 4 mm apart from the respective two supports. Loading (3 mm/minute) from upper direction was kept on the middle point (fracture section) of fibula until fibula begins to fracture. The maximum pressure necessary to break the bone was defined as the breaking force and the total energy spent to break the bone was defined as the breaking energy.

## COc1ccc(C2CNC(=O)C2)cc1OC1CCCC1 (stereo not drawn) [Rolipram]
[1]
  bone mineral density of the backbone and the femur: increase of bone mineral density of the backbone and the femur
  hyperplasia of cortical bone: hyperplasia of cortical bone

## CCOc1cc2cc(CO)c(CO)c(-c3ccn(CCOC)c(=O)c3)c2cc1OCC [Compound (1)]
[2]
  calcium deposition / calcification enhancement: calcium deposition was clearly observed
[3]
  cartilage matrix (proteoglycan) production promoting effect (in words): remarkable matrix production promoting effect
Fibula fracture region; drug content 0.1 mg
  Fibula Bone Mineral Density: 36.77 ± 1.52 mg/cm^2
  Fibula Bone Volume: 68.1 ± 2.9 µL
  Fibula Bone Mineral Content: 14.27 ± 0.76 mg
  Breaking Energy: 4.37 ± 0.71 mJ
  Breaking force: 19.8 ± 2.14 N
Fibula fracture region; drug content 0.5 mg
  Fibula Bone Mineral Density: 40.05 ± 1.34 mg/cm^2
  Fibula Bone Volume: 77.2 ± 2.9 µL
  Fibula Bone Mineral Content: 15.20 ± 0.82 mg
  Breaking Energy: 6.44 ± 1.06 mJ
  Breaking force: 23.0 ± 1.68 N

## COc1cc2c(cc1OC)C(c1ccnc(-n3ccc4c(OCCN5CCOCC5)cccc4c3=O)c1)=N[C@H](CO)C2 [Compound (52)]
[3]
  cartilage matrix (proteoglycan) production promoting effect (in words): remarkable matrix production promoting effect

## COc1cc2cc(CO)nc(-c3ccnc(-n4nc(-c5nccs5)c5ccccc5c4=O)c3)c2cc1OC [Compound (53)]
[3]
  cartilage matrix (proteoglycan) production promoting effect (in words): remarkable matrix production promoting effect

## CC(=O)CCCCn1c(=O)c2c(ncn2C)n(C)c1=O [Pentoxifylline]
[1]
  bone mineral density of the backbone and the femur: increase of bone mineral density of the backbone and the femur
  hyperplasia of cortical bone: hyperplasia of cortical bone
